This passage reports Emax and EC50 results from patent publication US20250051313A1, “PHTHALAZINE DERIVATIVES AS PYRUVATE KINASE MODULATORS” (Sitryx Therapeutics Limited, priority 2021, published 2025).

Structures are written as SMILES. Like-named read-outs stand apart in the source and are kept apart here.

In general, Emax refers to the greatest response seen or fitted, relative to the assay's reference. What is called EC50 is the concentration needed to bring the measured effect to its halfway point.

Assay [1] concerns the target recombinant human PKLR (Homo sapiens (Human), UniProt P30613). Briefly: Human PKLR activation assay (Kinase-Glo Plus luminescence). It is filed as biochemical. The protocol: (§1) Measuring in vitro activation of recombinant human PKLR Compound activation of recombinant human PKLR pyruvate kinase activity was determined by biochemical assay. N-terminal His-tagged enzyme was sourced from R&D Systems and its substrates phosphoenolpyruvate (PEP) and ADP from Sigma-Aldrich and 2Bscientific Ltd, respectively. The Kinase-Glo® Plus luminescence assay was from Promega. All other reagents were from Sigma-Aldrich. Test Compounds were prepared as 10 mM DMSO stocks and dilution series prepared in DMSO for direct dilution into Assay Buffer comprising 50 mM imidazole, 50 mM KCl, 7 mM MgCl2, 0.01% Tween20, 0.05% BSA (pH 7.2).
Human PKLR was diluted into Assay Buffer to a final concentration of 5 pM. […]
(§2) After 60 minutes' incubation on an orbital shaker (300 rpm, 26° C.), enzyme activity was quantified by the luminescent detection of generated ATP. Kinase-Glo® Plus reagent was added to each well and the plates incubated for a further 15 minutes on an orbital shaker in the dark (300 rpm, 26° C.) before luminescence measurement on a plate reader (PHERAstar® FSX, BMG Labtech).
(§3) Percentage activation was calculated by normalising […] signals to plate LOW (DMSO vehicle) and HIGH (5 μM TEPP-46) controls. EC50 and Emax values were determined from 4-parameter logistic fits of compound concentration-response curves.

The target of assay [2] is pyruvate kinase (PK) activity in human CD4+ T cell lysates (Homo sapiens, UniProt P14618). Briefly: CD4+ T cell pyruvate kinase assay. It is filed as cell-based. The conditions noted are these: human CD4+ T cells incubated with compound 20 minutes, then lysed; ΔAbsorbance OD570. The protocol: Compound activation of pyruvate kinase in human CD4+ T cell lysates was determined by biochemical assay. Primary CD4+ T cells were used rather than cancer cell lines to improve the disease relevance of the assay. The PK assay was sourced from Abcam. All other reagents were sourced from ThermoFisher. Test compounds were prepared as 10 mM DMSO stocks and dilution series prepared in DMSO for addition to intact CD4+ T cells cultured in RPMI media containing 10% FBS.
Human CD4+ T cells were incubated with compound for 20 minutes and then washed twice in 1×PBS before resuspension in Abcam PK lysis buffer to prepare cell lysates. 10 μl PK assay Reaction Mix was added per well, including OXIRED™ PROBE. The plates were read using a BMG Labtech Pherastar plate reader at OD570 nm in kinetic mode for […] (25 cycles of 2 minutes) at 25° C., protecting from light.
Plates were blank-subtracted and ΔAbsorbance calculated by subtracting the first plate read within the linear range from the plate read at the timepoint of interest. PK activity is expressed as ΔAbsorbance and plotted against log [Compound].

Assay [3] concerns the target recombinant human PKM2 (Homo sapiens (Human), UniProt P14618). Briefly: Human PKM2 activation assay (Kinase-Glo Plus luminescence). It is filed as biochemical. The conditions noted are these: for Emax: read-out: hPKM2 Emax. The method, then:
as §1, with “PKM2” for “PKLR”, “hPKM2” for “enzyme”
Human PKM2 was diluted into Assay Buffer comprising 50 mM imidazole, 50 mM KCl, 7 mM MgCl2, 0.01% Tween20, 0.05% BSA (pH 7.2) to a final concentration of 5 pM. Enzyme-Assay Buffer mix was dispensed into a 384-well shallow-well white-walled plate (PerkinElmer) and Test Compounds added by acoustic dispense (Echo®, Labcyte Inc.).
as §2, §3

recombinant human PKM2, sequence (P14618 whole entry): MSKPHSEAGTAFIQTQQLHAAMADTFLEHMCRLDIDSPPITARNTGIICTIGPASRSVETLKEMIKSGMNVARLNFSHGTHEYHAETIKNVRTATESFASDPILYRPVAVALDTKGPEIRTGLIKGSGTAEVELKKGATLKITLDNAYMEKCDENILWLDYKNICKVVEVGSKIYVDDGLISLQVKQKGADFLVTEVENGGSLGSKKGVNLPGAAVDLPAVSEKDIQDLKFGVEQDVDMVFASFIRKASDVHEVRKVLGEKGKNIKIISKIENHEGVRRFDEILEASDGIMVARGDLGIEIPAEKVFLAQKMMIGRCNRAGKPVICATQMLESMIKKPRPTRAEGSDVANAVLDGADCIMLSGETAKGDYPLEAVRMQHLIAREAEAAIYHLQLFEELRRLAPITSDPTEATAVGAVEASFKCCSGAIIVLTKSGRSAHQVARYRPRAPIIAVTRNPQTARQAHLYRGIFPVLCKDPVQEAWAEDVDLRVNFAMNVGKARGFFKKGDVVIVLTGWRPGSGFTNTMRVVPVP
recombinant human PKLR, sequence (P30613 whole entry): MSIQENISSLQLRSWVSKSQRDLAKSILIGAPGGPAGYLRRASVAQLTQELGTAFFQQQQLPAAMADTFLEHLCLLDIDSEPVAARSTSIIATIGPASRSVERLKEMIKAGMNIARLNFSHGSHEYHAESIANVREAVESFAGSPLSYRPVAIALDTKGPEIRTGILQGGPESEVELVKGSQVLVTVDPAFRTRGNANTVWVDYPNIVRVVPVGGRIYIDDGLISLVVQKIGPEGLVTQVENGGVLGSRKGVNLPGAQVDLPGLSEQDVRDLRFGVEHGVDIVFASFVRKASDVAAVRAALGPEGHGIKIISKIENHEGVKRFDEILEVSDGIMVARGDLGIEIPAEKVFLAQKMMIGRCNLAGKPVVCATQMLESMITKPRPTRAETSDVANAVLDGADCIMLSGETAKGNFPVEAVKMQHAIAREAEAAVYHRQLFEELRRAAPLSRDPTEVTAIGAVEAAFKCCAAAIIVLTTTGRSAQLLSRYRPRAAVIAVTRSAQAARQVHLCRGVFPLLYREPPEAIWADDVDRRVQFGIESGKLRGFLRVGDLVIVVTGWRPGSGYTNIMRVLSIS
pyruvate kinase (PK) activity in human CD4+ T cell lysates, sequence (P14618 2-531 limits assumed): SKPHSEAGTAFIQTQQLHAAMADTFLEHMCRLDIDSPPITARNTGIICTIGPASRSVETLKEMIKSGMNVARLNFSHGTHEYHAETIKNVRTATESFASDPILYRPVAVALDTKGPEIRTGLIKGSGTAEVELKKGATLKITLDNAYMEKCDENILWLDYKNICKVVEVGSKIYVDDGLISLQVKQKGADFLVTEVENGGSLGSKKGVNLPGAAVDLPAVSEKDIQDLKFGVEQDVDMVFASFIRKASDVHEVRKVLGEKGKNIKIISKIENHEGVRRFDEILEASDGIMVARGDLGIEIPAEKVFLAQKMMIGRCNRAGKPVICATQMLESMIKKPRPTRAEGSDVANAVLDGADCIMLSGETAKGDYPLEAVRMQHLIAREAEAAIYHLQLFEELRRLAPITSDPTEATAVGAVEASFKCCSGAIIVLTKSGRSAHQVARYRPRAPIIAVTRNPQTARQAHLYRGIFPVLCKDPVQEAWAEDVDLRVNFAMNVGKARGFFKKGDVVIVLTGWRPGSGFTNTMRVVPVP

For the molecule `O=c1c2ccc(S(=O)(=O)c3cn[nH]c3)cc2cnn1Cc1ccn(C2CC2)n1` [Example 1, 6-((1H-pyrazol-4-yl)sulfonyl)-2-((1-cyclopropyl-1H-pyrazol-3-yl)methyl) phthalazin-1(2H)-one], the maximal response (Emax) in assay [1] (percentage activation normalised to DMSO (LOW) and 5 μM TEPP-46 (HIGH), read-out: hPKLR Emax) is 134%; in assay [3] (data from repeated experiments, normalised to DMSO and 5 μM TEPP-46) it was 107%; in assay [3] (percentage activation normalised to DMSO (LOW) and 5 μM TEPP-46 (HIGH)) it was 114%. Also, the concentration giving a half-maximal response (EC50) in assay [1] (recombinant His-tagged hPKLR, activation, 4-parameter logistic fit) was 10.3 nM; in assay [2], 82.5 nM; in assay [3] (data from repeated experiments, read-out: hPKM2 EC50) it was 107 nM; in assay [3] (recombinant His-tagged hPKM2, activation, 4-parameter logistic fit), 64.5 nM.
